{"source": "patent US10624871B2", "about": "“Bismuth(III) compounds and methods thereof” (priority 2016, dated 2020)", "test_system": "E. coli (NDM-1−)", "assay": "Checkerboard MIC analysis, NDM-1-null strain", "type": "cell-based", "settings": "NDM-1-null E. coli strain", "method": "FIGS. 10 (a)-(b) show a heat map of checkerboard MIC analysis over MER and CBS against clinical isolates of (a) E. coli (NDM-1^+) and (b) E. coli (NDM-1^−).\nMIC values of either antibiotics or Bi(III) compounds were determined firstly by standard broth micro-dilution method (Clinical and Laboratory Standards Institute (CLSI) M100-S20, 2010). Briefly, bacteria cells were cultured in LB broth overnight at 37° C. at 250 rpm and the optical density was measured at 600 nm (OD600) using a microtiter plate reader. The bacteria density was adjusted to about 1×10^6 CFU mL^−1 and checked by CFU counting on agar plates afterwards. Tested compounds were added triplicately into individual wells of flat-bottomed 96-well plates and performed two-fold serial dilution, followed by addition of prepared bacterial inoculum. […] The MIC was determined as the lowest concentration of compounds that could inhibit the growth of microorganism by both visual reading and OD600 measurement. […]\nFor the test of drug combination, antibiotics and Bi(III) compounds were co-administrated at concentrations up to 8 times higher than the MIC of the compounds tested alone. […] The FICIs were determined based on the following equation: FICI=FICA+FICB=CA/MICA+CB/MICB where MICA and MICB are the MIC values of compound A and B when functioning alone, and CA and CB are the concentrations of compound A and B at the effective combinations. […]", "data": [{"smiles": "O=C([O-])CC([O-])(CC(=O)[O-])C(=O)[O-].O=C([O-])CC([O-])(CC(=O)[O-])C(=O)[O-].[Bi+3].[Bi+3].[K+]", "note": "[Complex 10, colloidal bismuth subcitrate]", "values": [{"measurement": "synergy of MER and CBS in checkerboard MIC", "result": "no inhibition was observed"}]}]}
